Results as given in patent US20230250127A1, “MODIFIED mRNA 5'-CAP ANALOGS” (Nanjing GeneLeap Biotechnology Co., Ltd., priority 2021, published 2023).
“Also recorded” adds a separate entry of the source.

Tests used:
C57BL/6 mice [1] = experiment: In vivo Fluc expression of capped mRNA-LNPs by in vivo imaging system (IVIS); details: for expression levels of Fluc protein in liver and muscle (injection site) tissues: Experiment 2, by in vivo imaging system and by ex vivo Luciferase assay, vs Cleancap AG (FIG. 13); for in vivo expression levels of Fluc protein (in vivo imaging system): vs Cleancap AG-mRNA; for Fluc expression in vivo, summary of FIGS. 10-13: mice, intramuscular mRNA-LNPs, compared to Cleancap AG
Method: (§1) Female C57BL/6 mice 7-8 weeks of age were randomly allocated to experimental groups, 30 mice per group. For each group, 6 experimental conditions were set up: 2 mRNA doses (0.01, 0.1 mg/kg) and 3 time points 6 h, 24 h, 48 h (5 mice/dose/time point). A single intramuscular injection of mRNA-loaded LNPs was performed (injection volume 40 µl). At 6 h, 24 h and 48 h post-injection, 5 animals/dose in each group were taken for in vivo tissue and organ imaging. The animals were shaved and intraperitoneally injected with 200 µL of a d-luciferin solution (15 mg/mL in DPBS) D-luciferin and anesthetized 8 min later using isoflurane (5% induction, 2% maintenance in pure oxygen). The emitted light was measured by in vivo imaging system (IVIS) exactly 12 min after d-luciferin injection. Whole body supine and lateral position imaging was carried out.
(§2) After Whole body imaging, the animals were euthanized, and the leg muscles (injection site) were harvested in Experiment 1; muscles and livers were harvested in Experiment 2. The emitted light by the tissues/organs was measured by IVIS in less than 25 min after d-luciferin injection.

HeLa cells = experiment: Fluc mRNA carrying 5′-cap analogs, translation in HeLa cells (luciferase luminescence); format: cell-based; details: for Fluc expression in vitro, summary of FIGS. 7-9: HeLa cells, compared to the control Cleancap AG; for expression levels of Fluc protein by mRNAs containing different 5′caps: HeLa
Method: The novel 5′ -caps synthesized were incorporated into Firefly luciferase (Fluc) mRNA using pGL-T7-AG-nUTR002-Fluc-HBB3UTR-30+70A-BpiI (Kana-AGG-BpiI Plasmid Size: 4856bp). Then, the dose responses of the new cap analogs were compared to commercially available Cap analog from Trilink m7G(5′)ppp(5′)(2′OMeA)pG (cat no. N-7113).
Briefly, 1 µg GLuc (AGG plasmid) template per reaction was transcribed in vitro using a High Yield T7 mRNA synthesis kit (NEB, E2040S). Cap analogs were added by co-transcription. Transcription was carried out for 2 hours, followed by DNase I treatment for 15 min. Ratio of NTP to Cap analogs, 10:4 (10 mM NTP each, 4 mM cap).
Expected mRNA length: 2008 nt. Then the small scale IVT mRNAs were purified using DNA Selection Magnetic beads (Yeasen,12601ES56), Large scale IVT mRNAs were purified using POROS™ Oligo (dT)25 (Thermofisher, A47383) and Ultrafiltration use Amicon® Ultra-15(Merk, UFC910024), the RNA was quantitated using Nanodrop, and 500 ng of each mRNA was run on agarose E-Gel, mRNAs were run on a 2100 bioanalyzer or CE (PA800) for checking mRNA integrity, HPLC for Purity, DNAzyme-PAGE for Capping efficiency and polyA quality. Large scale mRNA were subjected to more QC (Capping/polyA tail-LC-MS, Template DNA residual-qPCR, dsRNA-Elisa, pH).
Novel 5 ′-cap structures that were synthesized were incorporated into Firefly luciferase (Fluc) mRNA via IVT as described above and then assessed for translation efficacy in HeLa cells following transfection. Briefly, HeLa cells were seeded in a 96-well plate (20000cells/0.1 ml/well). The next day (approx. ∼80-90% confluent), the cells were transfected with 25, 50, or 100 ng/well of Fluc-mRNA samples using 2 µl/ml of Lipofectamine MessengerMax (Thermo Scientific, cat#LMRNA015) or in-house formulated lipid-nanoparticles (LNPs). The cells were incubated for another 24 h. To monitor the functional (translation) activity of Fluc mRNAs into which different 5′cap analogs have been incorporated, the Fluc protein expression was evaluated by adding 60 µl Bio Lite Luciferase Assay System (Vazyme, cat # DD1201-02) into each well, incubating the plates at room temperature for 10 min, and measuring the luminescence using a multimode plate reader luminometer. All wells were assayed in triplicates. Statistical analysis was performed using two-way ANOVA followed by uncorrected Fisher’s LSD.

C57BL/6 mice [2] = experiment: Ex vivo Luciferase assay of tissue homogenates after mRNA-LNP injection; format: in vivo; details: Experiment 1, low and high dose regimens, different time points; vs Cleancap AG-mRNA
Method: as §1, §2
Next, tissue lysates were prepared by homogenization and Glo Lysis Buffer 1X (Abcam cat # ab6789) treatment. The lysates were centrifuged at 4° C. for 15 min at 10000 g, and the supernatants were used for total protein quantification and luciferase activity assessment. […]

C3 tumors = experiment: C3 Tumor Model, capped HPV E6/E7 mRNA; format: in vivo; details: GL2288 mRNA, mid dose (0.05 mg/Kg), intramuscular Day 0; vs CC
Method: As soon as the C3 tumors reached 100 mm^3, our HPV E6/E7 mRNA sequence (GL2281) (wherein the sequence encoding HPV E6-E7 is SEQ ID NO:2), capped with either CleanCap, GL-Cap5 or GL-Cap1, was administered intramuscularly at 10 µg per dose, with the first dose on Day 0 and second dose on Day 10. The PBS and 10 µg of CleanCap-capped Luciferase mRNA (FF luciferase) were used for comparison.
As soon as the C3 tumors reached 100 mm3, our HPV E6/E7 mRNA sequence (GL2288) (wherein the sequence encoding HPV E6-E7 is SEQ ID NO:1), capped with either CleanCap (CC), or GL-Cap7, was administered intramuscularly at different doses at Day 0. The CleanCap-capped Luciferase mRNA (FF Luciferase) was used for comparison.

[3] = Experiment 2, single intramuscular dose 0.1 mg/kg, 6 h after injection

Structure (SMILES)	expression levels of Fluc protein in liver and muscle (injection site) tissues (C57BL/6 mice [1])	in vivo expression levels of Fluc protein (in vivo imaging system) (C57BL/6 mice [1]; [3])	Fluc expression in vitro, summary of FIGS. 7-9 (HeLa cells)	expression levels of Fluc protein by mRNAs containing different 5′caps (HeLa cells; 24 h, in-house LNP formulation, high and medium doses (FIG. 7B))	expression levels of Fluc protein by mRNAs containing different 5′caps (HeLa cells; 24 h post-transfection, Lipofectamine MessengerMax, different tested doses, vs Cleancap AG (FIG. 7A))	expression levels of Fluc protein in muscle tissue homogenates (ex vivo Luciferase assay) (C57BL/6 mice [2])	in vivo expression levels of Fluc protein (in vivo imaging system) (C57BL/6 mice [1]; Experiment 1, single intramuscular dose of mRNA-LNPs, low and high dose regimens, 6 h, 24 h, 48 h)	Fluc expression in vivo, summary of FIGS. 10-13 (C57BL/6 mice [1])	anti-tumor efficacy (C3 tumors)	expression levels of Fluc protein by mRNAs containing different 5′caps (HeLa cells; 24 h, in-house LNP formulation, low doses (FIG. 7B))
C[n+]1cn([C@@H]2O[C@H](COP(=O)([O-])OP(=O)(O)OP(=O)(O)OC[C@]34COC(C3OP(=O)(O)OC[C@]35COC(C3OP(=O)(O)OC[C@H]3O[C@@H](n6cnc7c(=O)[nH]c(N)nc76)C(O)C3O)[C@H](n3cnc6c(N)ncnc63)O5)[C@H](n3cnc5c(N)ncnc53)O4)C(O)C2O)c2nc(N)[nH]c(=O)c21 (some centres unmarked) [GL-Cap1, 7mGppp(locked)Ap(locked)ApG]	better	slightly higher than in the Cleancap AG group, but without statistical significance								
C[n+]1cn([C@@H]2O[C@H](COP(=O)([O-])OP(=O)(O)OP(=O)(O)OC[C@]34COC(C3OP(=O)(O)OC[C@H]3O[C@@H](n5cnc6c(=O)[nH]c(N)nc65)C(O)C3O)[C@H](n3cnc5c(N)ncnc53)O4)C(O)C2O)c2nc(N)[nH]c(=O)c21 (some centres unmarked) [GL-Cap5, 7mGppp(locked)ApG]	comparable	significantly higher Fluc expression levels	stronger expression	significantly higher than all the other tested caps	significantly higher expression level at different tested doses	higher than with Cleancap AG-mRNA	significantly higher Fluc expression levels; also recorded: the strongest expression level among the tested caps	significantly stronger expression		
C[n+]1cn([C@@H]2O[C@H](COP(=O)([O-])OP(=O)(O)OP(=O)(O)OC[C@]34COC(C3OP(=O)(O)OC[C@H]3O[C@@H](n5cnc6c(=O)[nH]c(N)nc65)C(O)C3O)[C@H](n3cnc5c(N)ncnc53)O4)C(O)C2F)c2nc(N)[nH]c(=O)c21 (some centres unmarked) [GL-Cap7, 7m-2′F-Gppp(locked)ApG]	better; also recorded: highest expression levels	significantly higher Fluc expression levels	stronger expression					significantly stronger expression	higher anti-tumor efficacy than CC	
COCCOC1C(O)[C@@H](COP(=O)([O-])OP(=O)(O)OP(=O)(O)OC[C@]23COC(C2OP(=O)(O)OC[C@H]2O[C@@H](n4cnc5c(=O)[nH]c(N)nc54)C(O)C2O)[C@H](n2cnc4c(N)ncnc42)O3)O[C@H]1n1c[n+](C)c2c(=O)[nH]c(N)nc21 (some centres unmarked) [GL-Cap8, 7m-2-′MOE-Gppp(locked)ApG]	better; also recorded: highest expression levels									stronger expression than Cleancap AG (Trilink)
